Source: US5134150A, “Inhibition of the 5-lipoxygenase pathway” (priority 1989, dated 1992)
Where two headings read alike, the source gives them in different places.

What was measured:
[1] = test system: Arachidonic Acid-Induced Inflammation of the Mouse Ear; assay: Arachidonic acid-induced mouse ear inflammation; format: in vivo, mouse (male Balb/c); conditions: for inhibition in vivo at 50 mg/kg: Mus musculus, 1 h, Table 7A, read-out: % Inhibition of Ear Swelling
Excerpt: (§1) In the following Examples where mice were used, they were male Balb/c mice (20-28 g), and where rats were used, they were male Lewis rats (180-210 g). All mice and rats were obtained from Charles River Breeding Laboratories, Kingston, N.Y. Within a single experiment, mice and rats were sex and age matched.
(§2) The compounds of Formula (I) were used either as the free base or in the appropriate salt form. Levamisole was used as the hydrochloride salt. The compounds were homogenized in 0.5% tragacanth. Compounds were administered by gavage at the indicated dose in a final volume of 10 ml/kg. Nordihydroguaiaretic acid (NDGA) was solubilized in dimethylacetamide and diluted with olive oil for subcutaneous administration.
Arachidonic acid in acetone ([…]) was applied to the inner surface of the left ear. The thickness of both ears was then measured with a dial micrometer one hour after treatment, and the data were expressed as the change in thickness (10^-3 cm) between treated and untreated ears.
Test compounds were given orally in 0.5% tragacanth at the times indicated in the text prior to the topical application of arachidonic acid.
Parenteral administration of compound was accomplished by subcutaneous injection of solution as indicated.

[2] = test system: 5-lipoxygenase and LTA4 synthetase; assay: Di-HETE / LTB4 production by high speed supernatant of RBL-1 cells; format: biochemical; conditions: RBL-1 high speed supernatant; Table 9A; read-out: 5-LO IC50 (LTB4 production)
Method: (§3) For in vitro experiments, compounds were dissolved at appropriate concentrations in ethanol or DMSO (dimethylsulfoxide) (final concentration≤1.0%) and then diluted to final concentrations using the buffers indicated in the text.
(§4) The activities of these enzymes in extracts of RBL-1 cells were assayed using the method of Jakschik and Lee, Nature, 287, 51-52 (1980). RBL-1 cells were obtained from the American Type Culture Collection (#CRL 1378) and were grown at 37° C. (5% CO2 in air) in spinner culture in MEM supplemented with 10% heat inactivated fetal calf serum. Harvested cells were washed with 50 mM sodium phosphate buffer, pH 7.0, containing 1 mM EDTA and 0.1% gelatin, resuspended in fresh buffer (5×10^7 cells/ml) and disrupted by nitrogen cavitation using the Parr bomb at 750 psi for 10 min. The broken cell extract was then centrifuged at 10,000× g for 20 minutes (min) and the supernatant centrifuged at 100,000 xIg for 60 min. Aliquots (0.25 mls) of the supernatant were preincubated with or without drugs for 10 min, after which 10 μl CaCl2 (50 mM) was added and the reaction was initiated with 2.5 μl of 2.5 mM arachidonic acid-1-^14 C (final concentration was 25 μM; specific activity 20,000 dpm/nmole). After incubation for 3 min at 37° C., the reaction was terminated by addition of 2 volumes (0.5 ml) ice cold acetone and the sample was allowed to deproteinize on ice for 10 min prior to centrifugation at 1,000× g for 10 min. The deproteinized supernatant was adjusted to pH 3.5 with 2N formic acid and extracted with 2 volumes of ice cold ethyl acetate. The extracted samples were dried under argon, redissolved in ethyl acetate and applied to Whatman LK5D thin layer chromatography (TLC) plates which were developed using the A-9 solvent system [organic phase of ethyl acetate: 2,2,5-trimethylpentane:acetic acid: water (110:50:20:10)] described by Hamberg and Samuelsson, J. Biol. Chem., 241, 257-263 (1966). Arachidonic acid, 5-HETE, LTB4 and PGD2 were quantified with a Berthold LB 2832 autoscanner.
(§5) The 5-lipoxygenase and LTA4 synthetase activities were further studied under the following conditions. An additional centrifugation of the RBL-1 supernatant was run at 100,000× g for 60 min, to remove the particulate cyclooxygenase activity. Sample incubation was done under conditions similar to those described above, i.e., 2 mM CaCl2 and […] arachidonic acid-1-^14 C, however, with an incubation time of 5 min at 5° C. Under these conditions, only the 5-lipoxygenase pathway metabolites were detectable. The 5-HETE and di-HETEs were formed at a linear rate, and substantial amounts of the arachidonic acid-1-^14 C substrate were utilized.

[3] = test system: LTC4 production by human monocytes; assay: LTC4 production by human monocytes; format: cell-based; set-up: key to IC50, LTC4 production: NS = not significant; conditions: A23187-stimulated human monocytes; for IC50: Monocyte
Method: The compounds of Formula (I) were evaluated for their ability to inhibit the production of LTC4 by human monocytes according to the following assay. Human monocytes were prepared from whole blood supplied by the American Red Cross. The blood was fractinated by a two-step procedure employing sedimentation on Ficoll followed by sedimentation on Percoll. […] Non-adherent cells were removed by washing. […] When drugs were evaluated, they were added to the cells 30 minutes prior to the A23187. Supernatants were collected, […] by centrifugation and stored frozed at -20° C. until assay. The LTC4 content was determined by using a New England Nuclear Leukotriene C-4 (^3 H) RIA Kit as per instructions.

[4] = target: T1, 5-Lipoxygenase (Rattus norvegicus, UniProt P12527); assay: 5-HETE production by high speed supernatant of RBL-1 cells; format: biochemical; conditions: for IC50: RBL-1 high speed supernatant, Table 8A
T1 construct: The activities of these enzymes in extracts of RBL-1 cells were assayed; host or cells: RBL-1
T1 sequence (P12527 1-673): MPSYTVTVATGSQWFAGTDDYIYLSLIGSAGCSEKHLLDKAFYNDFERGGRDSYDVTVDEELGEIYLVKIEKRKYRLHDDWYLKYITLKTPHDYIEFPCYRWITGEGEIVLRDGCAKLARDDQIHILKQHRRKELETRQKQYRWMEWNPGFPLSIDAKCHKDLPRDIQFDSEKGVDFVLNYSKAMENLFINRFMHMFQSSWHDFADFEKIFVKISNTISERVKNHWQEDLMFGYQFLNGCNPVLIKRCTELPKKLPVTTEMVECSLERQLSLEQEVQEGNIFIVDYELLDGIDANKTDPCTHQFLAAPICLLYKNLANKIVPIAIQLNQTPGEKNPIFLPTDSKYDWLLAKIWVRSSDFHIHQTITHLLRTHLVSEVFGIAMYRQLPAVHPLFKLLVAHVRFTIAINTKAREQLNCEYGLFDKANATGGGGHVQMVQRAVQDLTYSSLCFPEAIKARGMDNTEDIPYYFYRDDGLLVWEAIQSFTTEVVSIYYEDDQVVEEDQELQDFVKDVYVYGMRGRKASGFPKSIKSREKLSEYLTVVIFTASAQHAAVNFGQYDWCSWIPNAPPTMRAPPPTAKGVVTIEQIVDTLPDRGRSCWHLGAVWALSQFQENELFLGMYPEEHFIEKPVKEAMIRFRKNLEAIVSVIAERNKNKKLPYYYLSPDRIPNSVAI
Method: as §3, §4, §5

[5] = test system: Experimental Allergic Encephalomyelitis Induced in Female Lewis Rats; assay: Experimental allergic encephalomyelitis, hindleg paralysis; format: in vivo, rat (female Lewis); conditions: 0.3 mg/kg/day, p.o.
Method: EAE is induced in Female (Charles River) Lewis rats by a single intradermal injection of 0.1 ml of an encephalitogenic emulsion consisting of equial parts of a 50% w/v homogenate of guinea pig spinal cord and mid-brain in 0.5% aqueous phenol and Freund's complete adjuvant (4 mg/ml killed, dried M. butyricum) into a hindpaw (left) footpad. […] Any animal which becomes paralyzed during the course of the experiment is considered to have developed EAE whether or not the paralysis is permanent. Test compounds are administered daily beginning on the day of injection, for 19 days, exclusive of days 5, 6 12 and 13. Drug activity is determined by comparing the indicidence of EAE (paralysis) of the treated group with a control (vehicle) group. The level of significant difference between the treated groups and control groups is determined by a Chi-square test using a 2×2 contingency table. Body weight changes from day 0 are also statistically compared to the control group using a Student "t" test.

[6] = test system: area of infarction following coronary occlusion; conditions: dogs; cited from earlier work
[7] = test system: LTB4 and 5-HETE production; conditions: in vitro; cited from earlier work
[8] = test system: rheumatoid arthritis; conditions: preliminary observation; cited from earlier work
[9] = test system: Infiltration of Polymorphonuclear Leukocytes into Sites of Carrageenan-Induced Inflammation; assay: Mouse carrageenan peritonitis (PMN infiltration); format: in vivo, mouse (male Balb/c); conditions: carrageenan peritonitis, mice
Excerpt: as §1, §2
Mice were pretreated with either the test compound or vehicle one hour before the intraperitoneal injection of a 1.0% carrageenan suspension in saline (0.2 ml/mouse). Mice were sacrificed by cervical dislocation two hours after injection, and 3.0 ml of phosphate buffered saline, without Ca^++ or Mg^++, was injected into the peritoneum. Following massage, a 2.0 ml aliquot of the lavage fluid was removed, and the total cell count determined on a Coulter counter and differential cell count determined by microscopic examination of Giesma-stained slides.

[10] = test system: psoriasis; conditions: in vivo; cited from earlier work
[11] = test system: lipoxygenase; conditions: in vitro; cited from earlier work
[12] = 25 mg/kg, p.o., pretreated at 2 hrs

Compound: CCNc1ccc(-c2nc3n(c2-c2ccc(NCC)cc2)CCS3)cc1 [Compound 17]
- inhibition in vivo at 50 mg/kg ([1]; 50 mg/kg s.c. or i.p.): 38%
- IC50 [2]: 0.1 µM
- IC50 [3]: 1.2 µM

Compound: Fc1ccc(-c2nc3n(c2-c2ccc(F)cc2)CCS3)cc1 [Compound 26]
- IC50 [4]: > 10 µM
- inhibition at 10 µM ([4]; read-out: inhibition of 5-HETE at 10 μM, 10 μM, Table 8A footnote): 46%
- IC50 [2]: > 10 µM

Compound: COc1ccc(-c2nc3n(c2-c2ccncc2)CCS3)cc1 [Compound 18]
- inhibition in vivo at 50 mg/kg ([1]; po, 50 mg/kg p.o.): 40%
- IC50 [2]: 1.9 µM
- IC50 [3]: 9.9 µM

Compound: FC(F)(F)c1ccc(-c2nc3n(c2-c2ccc(C(F)(F)F)cc2)CCS3)cc1 [Compound 27]
- IC50 [4]: 28 µM

Compound: CN(Cc1cnc2nc(N)nc(N)c2n1)c1ccc(C(=O)N[C@@H](CCC(=O)O)C(=O)O)cc1 [Methotrexate]
- Hindleg paralysis - cumulative incidence, day 9 to 13 [5]: 0/11
- Hindleg paralysis - cumulative incidence, day 14 to 18 [5]: 0/11

Compound: NC1=NN(c2cccc(C(F)(F)F)c2)CC1 [BW755-C]
- Area of infarction, in words [6]: reduced

Compound: Fc1ccc(-c2c(-c3ccncc3)nc3n2CCS3)cc1 [Compound 12]
- inhibition in vivo at 50 mg/kg ([1]; 50 mg/kg s.c. or i.p.): 58%
- IC50 [2]: 17 µM
- IC50, LTC4 production [3]: NS

Compound: [O-][S+]1CCn2c1nc(-c1ccc(F)cc1)c2-c1ccncc1 (stereo not drawn) [Compound 28, 5-(4-pyridyl)-6-(4-fluorophenyl)-2,3-dihydroimidazo[2,1-b]thiazole-S-oxide]
- inhibition in vivo at 50 mg/kg ([1]; 50 mg/kg s.c. or i.p.): 69%
- IC50 [2]: 1000 µM
- IC50 [3]: 0.5 µM

Compound: O=C(O)c1cc(/N=N/c2ccc(S(=O)(=O)Nc3ccccn3)cc2)ccc1O [Sulfasalazine]
- Inhibition of LTB4 and 5-HETE production, in words [7]: inhibit LTB4
- Efficacy in rheumatoid arthritic patients, in words [8]: efficacy, including remission

Compound: O=S1(=O)CCn2c1nc(-c1ccc(F)cc1)c2-c1ccncc1 [Compound 29, 5-(4-pyridyl)-6-(4-fluorophenyl)-2,3-dihydroimidazo[2,1-b]thiazole-S-dioxide]
- inhibition in vivo at 50 mg/kg ([1]; po, 50 mg/kg p.o.): 67%
- IC50 [2]: > 100 µM
- IC50 [3]: 0.5 µM

Compound: C[C@@H]1C[C@H]2[C@@H]3CCC4=CC(=O)C=C[C@]4(C)[C@@]3(F)[C@@H](O)C[C@]2(C)[C@@]1(O)C(=O)CO [Dexamethasone, reference compound]
- PMN infiltration, result in words [9]: effective
- % Change (ear thickness) [1, 12]: -35%
- Increase in Ear Thickness at 1 Hour [1, 12]: 18.2 ± 4.1 × 10-3 cm
- Mouse ear edema, result in words ([1]; mouse, in vivo): only moderately effective

Compound: CC(C(=O)O)c1ccc2oc(-c3ccc(Cl)cc3)nc2c1 (stereo not drawn) [Benoxaprofen]
- Effect on psoriasis, in words [10]: promising effect
- Lipoxygenase inhibitory activity, in words [11]: in vitro lipoxygenase inhibitory activity
